pIC50: −log10 of the molar value. Read-outs that look alike come from different tables or passages of the source.
Tests used:
P-P70S6K (T389) = test: Cell based AlphaLISA assay, inhibition of P-P70S6K (T389) (mTORC1 substrate phosphorylation) in MDA-MB-468 cells; conditions: Homo sapiens, 4 h, two to four hours at 37° C.; for IC50: AlphaLISA, read-out: pIC50 for Inhibition of mTORC1 and mTORC2 Substrate Phosphorylation, P-P70S6K-(T389) (converted)
Experimental: (§1) Cell Based AlphaLISA Assays for Determining IC50 for Inhibition of P-Akt (S473), P-4E-BP1 (T37/46), and P-P70S6K (T389) in MDA-MB-468 Cells
(§2) mTOR Kinase Cellular Assay
(§3) To measure functional activity of mTORC1 and mTORC2 in cells the phosphorylation of 4EBP1 (Thr37/46) and P70S6K (Thr389), and AKT1/2/3 (Ser473) was monitored using AlphaLisa SureFire Ultra Kits (Perkin Elmer). […] Incubations were terminated by removal of the assay buffer and addition of lysis buffer provided with the assay kit. Samples were processed according to the manufacturer's instructions. The Alpha signal from the respective phosphoproteins was measured in duplicate using a microplate reader (Envision, Perkin-Elmer or Spectramax M5, Molecular Devices). Inhibitor concentration response curves were analyzed using normalized IC50 regression curve fitting with control based normalization.

P-4E-BP1 (T37/46) = test: Cell based AlphaLISA assay, inhibition of P-4E-BP1 (T37/46) (mTORC1 substrate phosphorylation) in MDA-MB-468 cells; conditions: Homo sapiens, two to four hours at 37° C.; for IC50: AlphaLISA, read-out: pIC50 for Inhibition of mTORC1 and mTORC2 Substrate Phosphorylation, P-4E-BP1-(T37/46) (converted)
Experimental: as §1, §2, §3

P-Akt (S473) = test: Cell based AlphaLISA assay, inhibition of P-Akt (S473) (mTORC2 substrate phosphorylation) in MDA-MB-468 cells; conditions: Homo sapiens, two to four hours at 37° C.; for IC50: AlphaLISA, read-out: pIC50 for Inhibition of mTORC1 and mTORC2 Substrate Phosphorylation, p-AKT 1/2/3 -(S473) (converted)
Experimental: as §1, §2, §3

## CO[C@@H]1C[C@H](C[C@@H](C)[C@@H]2CC(=O)[C@H](C)/C=C(\C)[C@@H](O)[C@@H](OC)C(=O)[C@H](C)C[C@H](C)/C=C/C=C/C=C(\C)[C@@H](c3ccco3)C[C@@H]3CC[C@@H](C)[C@@](O)(O3)C(=O)C(=O)N3CCCC[C@H]3C(=O)O2)CC[C@H]1OCCCCc1cn(CCOCCOCCOCCOCCOCCOCCC(=O)NCCCCn2nc(-c3ccc4oc(N)nc4c3)c3c(N)ncnc32)nn1 (stereo in doubt) [Example 19]
P-P70S6K (T389)
  IC50: < 1 nM

## CO[C@H]1C[C@@H]2CC[C@@H](C)[C@@](O)(O2)C(=O)C(=O)N2CCCC[C@H]2C(=O)O[C@H]([C@H](C)C[C@@H]2CC[C@H](OCCCCc3cn(CCOCCOCCOCCOCCOCCOCCC(=O)NCCCCn4nc(-c5cccc(C(=O)NC6=NCCS6)c5)c5c(N)ncnc54)nn3)[C@H](OC)C2)CC(=O)[C@H](C)/C=C(\C)[C@@H](O)[C@@H](OC)C(=O)[C@H](C)C[C@H](C)/C=C/C=C/C=C/1C (stereo in doubt) [Example 41]
P-P70S6K (T389)
  IC50: < 1 nM
P-4E-BP1 (T37/46); MDA-MB-468, 4 h
  IC50: 3.16 to 31.6 nM
P-Akt (S473); MDA-MB-468, 4 h
  IC50: > 1000 nM

## CO[C@H]1C[C@@H]2CC[C@@H](C)[C@@](O)(O2)C(=O)C(=O)N2CCCCC2C(=O)O[C@H]([C@H](C)C[C@@H]2CC[C@H](n3cc(COCCOCCOCCOCCOCCOCCOCCOCCOCCOCCC(=O)NCCCCn4nc(-c5ccc6oc(N)nc6c5)c5c(N)ncnc54)nn3)[C@H](OC)C2)CC(=O)[C@H](C)/C=C(\C)[C@@H](O)[C@@H](OC)C(=O)[C@H](C)C[C@H](C)/C=C/C=C/C=C/1C (stereo in doubt) [Example 195]
P-P70S6K (T389)
  IC50: 1 to 10 nM
P-4E-BP1 (T37/46); MDA-MB-468, 4 h
  IC50: 3.16 to 31.6 nM
P-Akt (S473); MDA-MB-468, 4 h
  IC50: 3.16 to 31.6 nM

## CO[C@H]1C[C@@H]2CC[C@@H](C)[C@@](O)(O2)C(=O)C(=O)N2CCCC[C@H]2C(=O)O[C@H]([C@H](C)C[C@@H]2CC[C@H](n3cc(COCCOCCOCCOCCC(=O)OCCOCCOCCOCCOCCC(=O)NCCCCn4nc(-c5ccc6oc(N)nc6c5)c5c(N)ncnc54)nn3)[C@H](OC)C2)CC(=O)C(C)/C=C(\C)[C@@H](O)[C@@H](OC)C(=O)[C@H](C)C[C@H](C)/C=C/C=C/C=C/1C (stereo in doubt) [Example 197]
P-P70S6K (T389)
  IC50: 1 to 10 nM
P-4E-BP1 (T37/46); MDA-MB-468, 4 h
  IC50: 3.16 to 31.6 nM
P-Akt (S473); MDA-MB-468, 4 h
  IC50: 31.6 to 1000 nM

## CO[C@H]1C[C@@H]2CC[C@@H](C)[C@@](O)(O2)C(=O)C(=O)N2CCCC[C@H]2C(=O)O[C@H]([C@H](C)C[C@@H]2CC[C@@H](OCCCCc3cn(CCOCCOCCOCCOCCOCCOCCOCCOCCC(=O)NCCCCn4nc(-c5ccc6oc(N)nc6c5)c5c(N)ncnc54)nn3)[C@H](OC)C2)CC(=O)[C@H](C)/C=C(\C)[C@@H](O)[C@@H](OC)C(=O)[C@H](C)C[C@H](C)/C=C/C=C/C=C/1C [Example 1]
P-P70S6K (T389)
  IC50: < 1 nM
P-P70S6K (T389); AlphaLisa SureFire Ultra, read-out: IC50 for Inhibition of mTORC1 and mTORC2 Substrate Phosphorylation, p-P70S6K-(T389)
  pIC50: 9.52
P-4E-BP1 (T37/46); MDA-MB-468, 4 h
  IC50: < 3.16 nM
P-4E-BP1 (T37/46); MDA-MB-468, 4 h, AlphaLisa SureFire Ultra, read-out: IC50 for Inhibition of mTORC1 and mTORC2 Substrate Phosphorylation, p-4E-BP1-(T37/46)
  pIC50: 9.00
P-Akt (S473); MDA-MB-468, 4 h
  IC50: < 3.16 nM
P-Akt (S473); MDA-MB-468, 4 h, AlphaLisa SureFire Ultra, read-out: IC50 for Inhibition of mTORC1 and mTORC2 Substrate Phosphorylation, p-AKT1/2/3-(S473)
  pIC50: 8.41

## CO[C@H]1C[C@@H]2CC[C@@H](C)[C@@](O)(O2)C(=O)C(=O)N2CCCC[C@H]2C(=O)O[C@H]([C@H](C)C[C@@H]2CC[C@@H](OCCCCc3cn(CCOCCOCCOCCOCCOCCC(=O)NCCCCn4nc(-c5ccc6oc(N)nc6c5)c5c(N)ncnc54)nn3)[C@H](OC)C2)CC(=O)[C@H](C)/C=C(\C)[C@@H](O)[C@@H](OC)C(=O)[C@H](C)C[C@H](C)/C=C/C=C/C=C/1C [Example 2]
P-P70S6K (T389)
  IC50: < 1 nM
P-4E-BP1 (T37/46); 4 h
  IC50: 3.16 to 31.6 nM
P-Akt (S473); 4 h
  IC50: 31.6 to 1000 nM

## CO[C@H]1C[C@@H]2CC[C@@H](C)[C@@](O)(O2)C(=O)C(=O)N2CCCC[C@H]2C(=O)O[C@H]([C@H](C)C[C@@H]2CC[C@@H](OCCCCc3cn(CCOCCOCCOCCOCCOCCOCCC(=O)NCCCCn4nc(-c5ccc6oc(N)nc6c5)c5c(N)ncnc54)nn3)[C@H](OC)C2)CC(=O)[C@H](C)/C=C(\C)[C@@H](O)[C@@H](OC)C(=O)[C@H](C)C[C@H](C)/C=C/C=C/C=C/1C [Example 3]
P-P70S6K (T389)
  IC50: < 1 nM
P-4E-BP1 (T37/46); 4 h
  IC50: < 3.16 nM
P-Akt (S473); 4 h
  IC50: 3.16 to 31.6 nM

## CO[C@H]1C[C@@H]2CC[C@@H](C)[C@@](O)(O2)C(=O)C(=O)N2CCCC[C@H]2C(=O)O[C@H]([C@H](C)C[C@@H]2CC[C@@H](OCCCCc3cn(CCOCCOCCOCCOCCOCCOCCOCCOCCC(=O)NCCCCn4nc(I)c5c(N)ncnc54)nn3)[C@H](OC)C2)CC(=O)[C@H](C)/C=C(\C)[C@@H](O)[C@@H](OC)C(=O)[C@H](C)C[C@H](C)/C=C/C=C/C=C/1C [Example 4]
P-P70S6K (T389)
  IC50: < 1 nM
P-4E-BP1 (T37/46); MDA-MB-468, 4 h
  IC50: > 1000 nM
P-Akt (S473); MDA-MB-468, 4 h
  IC50: > 1000 nM

## CO[C@H]1C[C@@H]2CC[C@@H](C)[C@@](O)(O2)C(=O)C(=O)N2CCCC[C@H]2C(=O)O[C@H]([C@H](C)C[C@@H]2CC[C@@H](OCCCCc3cn(CCOCCOCCOCCOCCOCCOCCOCCOCCC(=O)NCCCCn4ncc5c(N)ncnc54)nn3)[C@H](OC)C2)CC(=O)[C@H](C)/C=C(\C)[C@@H](O)[C@@H](OC)C(=O)[C@H](C)C[C@H](C)/C=C/C=C/C=C/1C [Example 5]
P-P70S6K (T389)
  IC50: < 1 nM
P-4E-BP1 (T37/46); MDA-MB-468, 4 h
  IC50: 31.6 to 1000 nM
P-Akt (S473); MDA-MB-468, 4 h
  IC50: > 1000 nM

## CO[C@H]1C[C@@H]2CC[C@@H](C)[C@@](O)(O2)C(=O)C(=O)N2CCCC[C@H]2C(=O)O[C@H]([C@H](C)C[C@@H]2CC[C@@H](OCCCCc3cn(CCOCCOCCOCCOCCOCCOCCC(=O)NCCCCn4ncc5c(N)ncnc54)nn3)[C@H](OC)C2)CC(=O)[C@H](C)/C=C(\C)[C@@H](O)[C@@H](OC)C(=O)[C@H](C)C[C@H](C)/C=C/C=C/C=C/1C [Example 6]
P-P70S6K (T389)
  IC50: < 1 nM
P-4E-BP1 (T37/46); MDA-MB-468, 4 h
  IC50: > 1000 nM
P-Akt (S473); MDA-MB-468, 4 h
  IC50: > 1000 nM

## CO[C@H]1C[C@@H]2CC[C@@H](C)[C@@](O)(O2)C(=O)C(=O)N2CCCC[C@H]2C(=O)O[C@H]([C@H](C)C[C@@H]2CC[C@@H](OCCCCc3cn(CCOCCOCCOCCOCCOCCOCCOCCOCCC(=O)N4CCC(Cn5nc(-c6ccc7oc(N)nc7c6)c6c(N)ncnc65)C4)nn3)[C@H](OC)C2)CC(=O)[C@H](C)/C=C(\C)[C@@H](O)[C@@H](OC)C(=O)[C@H](C)C[C@H](C)/C=C/C=C/C=C/1C (stereo partly shown) [Example 7]
P-P70S6K (T389)
  IC50: < 1 nM
P-4E-BP1 (T37/46); MDA-MB-468, 4 h
  IC50: < 3.16 nM
P-Akt (S473); MDA-MB-468, 4 h
  IC50: < 3.16 nM

## CO[C@H]1C[C@@H]2CC[C@@H](C)[C@@](O)(O2)C(=O)C(=O)N2CCCC[C@H]2C(=O)O[C@H]([C@H](C)C[C@@H]2CC[C@@H](OCCCCc3cn(CCOCCOCCOCCOCCOCCOCCC(=O)N4CCC(Cn5nc(-c6ccc7oc(N)nc7c6)c6c(N)ncnc65)C4)nn3)[C@H](OC)C2)CC(=O)[C@H](C)/C=C(\C)[C@@H](O)[C@@H](OC)C(=O)[C@H](C)C[C@H](C)/C=C/C=C/C=C/1C (stereo partly shown) [Example 8]
P-P70S6K (T389)
  IC50: < 1 nM
P-4E-BP1 (T37/46); MDA-MB-468, 4 h
  IC50: < 3.16 nM
P-Akt (S473); MDA-MB-468, 4 h
  IC50: 3.16 to 31.6 nM

## CO[C@H]1C[C@@H]2CC[C@@H](C)[C@@](O)(O2)C(=O)C(=O)N2CCCC[C@H]2C(=O)O[C@H]([C@H](C)C[C@@H]2CC[C@@H](OCCOCc3cn(CCOCCOCCOCCOCCOCCOCCOCCOCCC(=O)NCCCCn4nc(-c5ccc6oc(N)nc6c5)c5c(N(C)C)ncnc54)nn3)[C@H](OC)C2)CC(=O)[C@H](C)/C=C(\C)[C@@H](O)[C@@H](OC)C(=O)[C@H](C)C[C@H](C)/C=C/C=C/C=C/1C [Example 9]
P-P70S6K (T389)
  IC50: < 1 nM
P-4E-BP1 (T37/46); MDA-MB-468, 4 h
  IC50: > 1000 nM
P-Akt (S473); MDA-MB-468, 4 h
  IC50: > 1000 nM

## CO[C@H]1C[C@@H]2CC[C@@H](C)[C@@](O)(O2)C(=O)C(=O)N2CCCC[C@H]2C(=O)O[C@H]([C@H](C)C[C@@H]2CC[C@@H](OCCOCc3cn(CCOCCOCCOCCOCCOCCOCCC(=O)NCCCCn4nc(-c5ccc6oc(N)nc6c5)c5c(N(C)C)ncnc54)nn3)[C@H](OC)C2)CC(=O)[C@H](C)/C=C(\C)[C@@H](O)[C@@H](OC)C(=O)[C@H](C)C[C@H](C)/C=C/C=C/C=C/1C [Example 10]
P-P70S6K (T389)
  IC50: < 1 nM
P-4E-BP1 (T37/46); MDA-MB-468, 4 h
  IC50: > 1000 nM
P-Akt (S473); MDA-MB-468, 4 h
  IC50: > 1000 nM

Reference: patent US20230093861A1, “RAPAMYCIN ANALOGS AS MTOR INHIBITORS” (Revolution Medicines, Inc., priority 2017, published 2023)
